This is an account of results in patent US9932329B2, “Benzimidazole derivatives as RLK and ITK inhibitors” (Principia Biopharma, Inc., priority 2014, dated 2018).

Structures can show the parent of a compound that is named as a salt. Where two headings read alike, the source gives them in different places.

The test system of one data set is NFAT-bla Jurkat cells. As to the kind of experiment: cells. Particulars: Homo sapiens, read-out: TCR-induced NFAT IC50.
In another data set the target is RLK (Homo sapiens (Human), UniProt P42681). Nature of the data set: Inhibition of RLK enzymatic activity, Caliper assay. The data set is classed as biochemical.
Chain of RLK (P42681 whole entry): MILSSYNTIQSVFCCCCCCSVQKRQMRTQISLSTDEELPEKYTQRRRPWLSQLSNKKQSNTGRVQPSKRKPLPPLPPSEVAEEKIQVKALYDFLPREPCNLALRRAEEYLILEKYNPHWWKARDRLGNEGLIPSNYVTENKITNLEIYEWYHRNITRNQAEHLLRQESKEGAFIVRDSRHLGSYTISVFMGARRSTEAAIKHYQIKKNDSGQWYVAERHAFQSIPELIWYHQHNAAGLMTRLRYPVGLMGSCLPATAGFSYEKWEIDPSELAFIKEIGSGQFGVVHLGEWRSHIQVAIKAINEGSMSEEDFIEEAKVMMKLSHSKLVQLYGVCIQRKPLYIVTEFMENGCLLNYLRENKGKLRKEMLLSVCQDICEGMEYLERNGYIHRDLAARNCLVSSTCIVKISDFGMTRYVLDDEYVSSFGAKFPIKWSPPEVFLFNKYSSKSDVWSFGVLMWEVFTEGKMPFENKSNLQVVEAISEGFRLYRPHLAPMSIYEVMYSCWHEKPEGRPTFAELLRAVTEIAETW
Another data set has as its system human PBMCs. Nature of the data set: cells. As to conditions: PBMC, read-out: CD3/CD28-induced IL-2 IC50.
The test system of data set [1] is cell types that do not express ITK and RLK. Nature of the data set: BioMap cell screening panel, cell types that do not express ITK and RLK. The data set is classed as cell-based. As to conditions: data not shown. The text has this: (§1) FIG. 1 depicts the inhibition of intracellular expression of IL-17 in the presence of an ITK/RLK inhibitor (Tool Compound A) by a population of T-cells activated by anti-CD3/anti-CD-28. FIG. 2 depicts results from a BioMap® cell screening panel (performed by BioSeek, Inc., South San Francisco, Calif.) is a set of cell-based assays used to probe the cellular potency and selectivity of inhibitory compounds. A variety of cell culture and co-culture systems are stimulated with a range of molecules. Biomarker readouts are pathway activities in the culture systems. The biomarker readouts measured in each system are indicated along the x-axis. […] Three concentrations of Compound A were tested for the ability to modulate the various readouts. […] The TH2 system consists of primary human umbilical vein endothelial cells co-cultured with 14-day TH2 polarized CD4 T-cell blasts stimulated with TCR and IL-2.

A further data set concerns murine Th17 cells. As to the kind of experiment: Differentiation of murine Th17 cells from CD4+ cells of TCR transgenic mice. The data set is classed as cell-based, mouse. Particulars: for IC50: Mus musculus, 72 h. The protocol: CD4+ cells from TCR transgenic mice (B10.A 5C.C7 TCR Tg (Rag-2^−/−)) were grown for three days in the presence of culture conditions that support the differentiation of the T cell population to Th17 cells (optimized concentrations of IL-6, TGF-β, IL-1β, IL-23, anti-mouse IL-2, anti-mouse IFN-γ, and anti-mouse IL-4 mAb). This was done in the presence of varying concentrations of Tool Compound A in the cell culture medium during the differentiation procedure. The cells were then activated with a combination of phorbol 12-myristate 13-acetate and ionomycin and the expression of the Th17 specific transcription factor RORγt and intracellular IL-17A was measured by flow cytometry.

The test system of another data set is human Th17 cells. As to the kind of experiment: Intracellular IL-17 expression by purified human Th17 cells after anti-CD3/anti-CD28 activation. As to conditions: single dose of 500 nM, 1 h exposure, 12 h activation, FACS. The data set is classed as cell-based. An excerpt: A population of T cells enhanced in Th17 cells was produced using the EasySep™ human Th17 enrichment kit from StemCell Technologies. […]

Data set [2] concerns human PBMC and B cell co-culture. Nature of the data set: IL-17A secretion in PBMC-B cell co-cultures (BioMap BT system). The data set is classed as cell-based.
Description: as §1
(§2) Tool Compound A was tested in T cell co-cultures consisting of either a mixture of human primary peripheral blood mononuclear cells (PBMC) and B cells or human primary differentiated Th2 cells and human umbilical vein endothelial cells. The PBMC-B cell co-cultures were stimulated with TCR activators anti-CD3 and anti-CD28 and anti-IgM antibodies for 84 h to simulate B cell activation driven by T cell activation. Tool Compound A was tested at 10 μM, 1 μM, 100 nM and 10 nM. […]

For data set [3], the system named is human Th2 cell-HUVEC co-culture. As to the kind of experiment: IL-17A secretion in primary Th2 cell-HUVEC co-cultures (BioMap TH2 system). The data set is classed as cell-based. As to conditions: stimulated by TCR activation and interleukin-2.
Description: as §1, §2

Setting [4] is: ATP at Km (100 μM), 15 min pre-incubation, 3 h reaction.

Take `CC(C)(C)C=C(C#N)C(=O)N1CCC[C@@H]1Cn1c(NC(=O)c2ccc(-c3cnco3)s2)nc2cc(CO)ccc21` [Example 1, (R)-N-(1-((1-(2-cyano-4,4-dimethylpent-2-enoyl)pyrrolidin-2-yl)methyl)-5-(hydroxymethyl)-1H-benzo[d]imidazol-2-yl)-5-(oxazol-5-yl)thiophene-2-carboxamide]: the IC50 was 50 nM in the data set on NFAT-bla Jurkat cells, 1.2 nM on RLK (setting [4]) and 71 nM in the data set with human PBMCs.
Consider `CC(C)(C)C=C(C#N)C(=O)N1CCC[C@@H]1Cn1c(NC(=O)c2ccc(-c3cnco3)s2)nc2cc(CNCC3CC3)ccc21` [Example 2, (R)-N-(1-((1-(2-cyano-4,4-dimethylpent-2-enoyl)pyrrolidin-2-yl)methyl)-5-(((cyclopropyl-methyl)-amino)methyl)-1H-benzo[d]imidazol-2-yl)-5-(oxazol-5-yl)thiophene-2-carboxamide formate], for which the figures for the IC50 with NFAT-bla Jurkat cells and with human PBMCs were 536 nM and 81 nM, respectively.
For `COCC(C)NCc1ccc2c(c1)nc(NC(=O)c1ccc(-c3cnco3)s1)n2C[C@H]1CCCN1C(=O)C(C#N)=CC(C)(C)C` (stereo partly drawn) [Example 7, N-1-(((R)-1-(2-cyano-4,4-dimethylpent-2-enoyl)pyrrolidin-2-yl)methyl)-5-((((R)-1-methoxypropan-2-yl)amino)methyl)-1H-benzo[d]imidazol-2-yl)-5-(oxazol-5-yl)-thiophene-2-carboxamide formate], the IC50 in the data set with NFAT-bla Jurkat cells came to 101 nM; at RLK (setting [4]), 2.1 nM; in the data set with human PBMCs, 109 nM.
On the same counts, the results for `C=CC(=O)N1CCC[C@@H]1Cn1c(NC(=O)c2ccc(-c3cnco3)s2)nc2cc(CNCC3CC3)ccc21` [Example 9, (R)-N-(1-((1-acryloylpyrrolidin-2-yl)methyl)-5-(((cyclopropylmethyl)amino)methyl)-1H-benzo[d]imidazol-2-yl)-5-(oxazol-5-yl)thiophene-2-carboxamide] are 4 nM, 0.3 nM and 4 nM.
The compound `C=CC(=O)N1CCC[C@@H]1Cn1c(NC(=O)c2ccc(-c3cnco3)s2)nc2cc(CN[C@H](CO)C(C)(C)C)ccc21` [Example 10, N-(1-(((R)-1-acryloylpyrrolidin-2-yl)methyl)-5-((((S)-1-hydroxy-3,3-dimethylbutan-2-yl)-amino)methyl)-1H-benzo[d]imidazol-2-yl)-5-(oxazol-5-yl)thiophene-2-carboxamide] registered an IC50 against RLK (setting [4]) of 0.2 nM.
Turning to `C=CC(=O)N1CCC[C@@H]1Cn1c(NC(=O)c2ccc(-c3cnco3)s2)nc2cc(CN[C@@H](CO)C(C)(C)C)ccc21` [Example 11, N-(1-(((R)-1-acryloylpyrrolidin-2-yl)methyl)-5-((((R)-1-hydroxy-3,3-dimethylbutan-2-yl)-amino)-methyl)-1H-benzo[d]imidazol-2-yl)-5-(oxazol-5-yl)thiophene-2-carboxamide], the IC50 against RLK (setting [4]) was determined as 0.5 nM.
For `C=CC(=O)N1CCC[C@@H]1Cn1c(NC(=O)c2ccc(-c3cnco3)s2)nc2cc(CN[C@@H](C)CO)ccc21` [Example 12, N-(1-(((R)-1-acryloylpyrrolidin-2-yl)methyl)-5-((((S)-1-hydroxypropan-2-yl)amino)methyl)-1H-benzo[d]imidazol-2-yl)-5-(oxazol-5-yl)thiophene-2-carboxamide], the IC50 in the data set on NFAT-bla Jurkat cells amounted to 5 nM; on RLK (setting [4]), 0.3 nM; with human PBMCs, 4 nM.
At RLK (setting [4]), `C=CC(=O)N1CCC[C@@H]1Cn1c(NC(=O)c2ccc(-c3cnco3)s2)nc2cc(CN[C@H](C)CO)ccc21` [Example 13, N-(1-(((R)-1-acryloylpyrrolidin-2-yl)methyl)-5-((((R)-1-hydroxypropan-2-yl)amino)methyl)-1H-benzo[d]imidazol-2-yl)-5-(oxazol-5-yl)thiophene-2-carboxamide] gave an IC50 of 0.3 nM.
For the compound `C[C@H](NCc1ccc2c(c1)nc(NC(=O)c1ccc(-c3cnco3)s1)n2C[C@H]1CCCN1C(=O)C(C#N)=CC(C)(C)C)C(C)(C)C` [Example 15, N-(1-(((R)-1-(2-cyano-4,4-dimethylpent-2-enoyl)pyrrolidin-2-yl)methyl)-5-((((S)-3,3-dimethyl-butan-2-yl)amino)methyl)-1H-benzo[d]imidazol-2-yl)-5-(oxazol-5-yl)thiophene-2-carboxamide], the IC50 on RLK (setting [4]) stood at 1.2 nM.
In the case of `C=CC(=O)N1CCC[C@@H]1Cn1c(NC(=O)c2ccc(C(F)F)s2)nc2cc(CN[C@@H](C)C(C)(C)C)ccc21` [PRN694], the “Inhibitory activity in cell types that do not express ITK and RLK” value in data set [1] is recorded as “essentially no inhibitory activity”.
As for `C[C@H](NCc1ccc2c(c1)nc(NC(=O)c1ccc(C(F)F)s1)n2C[C@H]1CCCN1C(=O)C(C#N)=CC(C)(C)C)C(C)(C)C` [Tool Compound A, N-(1-(((R)-1-(2-cyano-4,4-dimethylpent-2-enoyl)pyrrolidin-2-yl)methyl)-5-((((S)-3,3-dimethylbutan-2-yl)amino)methyl)-1H-benzo[d]imidazol-2-yl)-5-(difluoromethyl)thiophene-2-carboxamide], the IC50 in the data set with murine Th17 cells (three days under Th17 conditions, PMA/ionomycin, flow cytometry, read-out: Midpoint of dose response - Th17: Intracellular cytokine expression (IL-17)) was below 25 nM; in the data set with murine Th17 cells (three days under Th17 conditions, PMA/ionomycin, flow cytometry, read-out: Midpoint of dose response - Th17: Transcription factor expression (RORγt)) it was around 25 nM; with murine Th17 cells (three days under Th17 differentiation conditions, read-out: Midpoint of dose response - Th17: Proliferation) it was below 25 nM; against RLK, 1 nM. For the same compound, the “Concentration that blocks expression of Th17 differentiation markers (RORγt and IL-17A)” value in the data set with murine Th17 cells (cultures polarizing murine T cells into Th17) is at most 25 nM. For the same compound, the “TCR-induced intracellular expression of IL-17” value in the data set with human Th17 cells is on record as “completely blocked”. In data set [2] (10 μM, 1 μM, 100 nM and 10 nM, anti-CD3, anti-CD28 and anti-IgM for 84 h), the “IL-17A secretion into culture supernatant” value was “inhibited in a dose dependent manner”. In data set [2] (BioMap panel, three concentrations), the “Release of soluble proinflammatory cytokines IL17A, IL17F and TNFα by activated T cells” value is “inhibits release”. Besides, the IL-17A secretion entry in data set [3] is listed as “inhibited IL-17A secretion in a dose dependent manner”.
